Test results from article PMC9525273 (Nature Communications, 2022).
Where “and” joins values, the source holds several entries; their conditions need not be identical. Equal entries are not always repeated. Where two headings read alike, the source gives them in different places.

Experiments:
Assay type in all cases: cell-based, Plasmodium falciparum
NF54^CTL parasites = assay: P. falciparum proliferation assay (72 h, flow cytometry, SYBR Green I/MitoTracker)
How it was run: (§1)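 Predominantly ring-stage cultures at 0.3% parasitaemia, 1% haematocrit, in medium with 10% O+ human serum; compound exposure 72 h, DMSO <0.5% (v/v). Live parasites counted by flow cytometry with SYBR Green I and 200 nM MitoTracker Deep Red. IC50/IC90 from linear interpolation of dose-response data.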

NF54^G358S-1 parasites = assay: as above
How it was run: as §1

[1] = system: isolated Dd2-Polδ-PfATP4^G358S P. falciparum trophozoites; assay: [Na+]cyt measurement (SBFI), Na+ dysregulation; design: Final [Na+]cyt reached: unit not given here; conditions: for IC50: read-out: IC50 for Na+ dysregulation
Method: The ratio of the fluorescence intensity recorded at 340 nm and 380 nm (with an emission wavelength of 515 nm) was converted to [Na^+]cyt using a calibration procedure that entailed suspending parasites in solutions of varying [Na^+] containing ionophores. Fluorescence measurements and calibrations were performed at 37 °C, either with individual 1 mL suspensions using a PerkinElmer LS 50B fluorescence spectrometer (for resting [Na^+]cyt measurements for which the data are shown in Supplementary Fig. 7) or in 96-well plates using a Tecan Infinite M1000 PRO plate reader with i-control (version 1.12) software (all other [Na^+]cyt measurements).

## N#Cc1cc(NC(=O)[C@H]2c3ccccc3C(=O)N(CC(F)(F)F)[C@@H]2c2cccnc2)ccc1F [(+)-SJ733]
NF54^CTL parasites; NF54CTL compared to NF54WT
  FC (IC50): 0.9 fold
  FC (IC90): 0.9 fold
NF54^CTL parasites; NF54CTL parasites, individual experiments, read-out: IC90 values
  IC90: 130 nM and 156 nM and 157 nM
NF54^CTL parasites; NF54CTL, single experiments, source data of Fig. 2 (nM in Supplementary Table 5), read-out: IC50 values
  IC50: 85.7 nM and 81.4 nM and 82.7 nM
NF54^CTL parasites; Plasmodium falciparum, NF54, NF54CTL parasites, mean of the experiments, read-out: IC90 values, MEAN
  IC90: 150 nM
NF54^CTL parasites; Plasmodium falciparum, NF54, NF54CTL, MEAN, source data of Fig. 2, read-out: IC50 values, MEAN
  IC50: 84.8 nM
NF54^CTL parasites; Plasmodium falciparum, NF54, NF54CTL, single experiments, source data of Fig. 2 (nM in Supplementary Table 5), read-out: IC50 values
  IC50: 89.3 nM
NF54^G358S-1 parasites; NF54G358S-1, single experiments, source data of Fig. 2 (nM in Supplementary Table 5), read-out: IC50 values
  IC50: 12600 nM and 15300 nM and 15000 nM
NF54^G358S-1 parasites; NF54G358S-1 compared to NF54WT
  FC (IC50): 148.8 fold
  FC (IC90): 155.4 fold
NF54^G358S-1 parasites; NF54G358S-1 parasites, individual experiments, read-out: IC90 values
  IC90: 25.9 µM and 24.2 µM and 24.3 µM
NF54^G358S-1 parasites; Plasmodium falciparum, NF54, NF54G358S-1, 10% human serum, read-out: IC50 ± SEM
  IC50: 14000 ± 683 nM
NF54^G358S-1 parasites; Plasmodium falciparum, NF54, NF54G358S-1, 10% human serum, read-out: IC90 ± SEM
  IC90: 25.4 ± 0.727 µM
NF54^G358S-1 parasites; Plasmodium falciparum, NF54, NF54G358S-1, MEAN, source data of Fig. 2, read-out: IC50 values, MEAN
  IC50: 14000 nM
NF54^G358S-1 parasites; Plasmodium falciparum, NF54, NF54G358S-1, single experiments, source data of Fig. 2 (nM in Supplementary Table 5), read-out: IC50 values
  IC50: 13000 nM
NF54^G358S-1 parasites; Plasmodium falciparum, NF54, NF54G358S-1 parasites, individual experiments, read-out: IC90 values
  IC90: 27.2 µM
NF54^G358S-1 parasites; Plasmodium falciparum, NF54, NF54G358S-1 parasites, mean of the experiments, read-out: IC90 values, MEAN
  IC90: 25.4 µM
[1]; Dd2-Polδ-PfATP4G358S, [(+)-SJ733] 9.8 nM, MEAN
  Final [Na+]cyt reached: 28.4
[1]; Dd2-Polδ-PfATP4G358S, [(+)-SJ733] 9.8 nM, single experiments
  Final [Na+]cyt reached: 25.4 and 25.6 and 34.3
[1]; Dd2-Polδ-PfATP4G358S, [(+)-SJ733] 19.5 nM, MEAN
  Final [Na+]cyt reached: 28.2
[1]; Dd2-Polδ-PfATP4G358S, [(+)-SJ733] 19.5 nM, single experiments
  Final [Na+]cyt reached: 24.8 and 26.3 and 33.5
[1]; Dd2-Polδ-PfATP4G358S, [(+)-SJ733] 39.1 nM, MEAN
  Final [Na+]cyt reached: 28.7
[1]; Dd2-Polδ-PfATP4G358S, [(+)-SJ733] 39.1 nM, single experiments
  Final [Na+]cyt reached: 26.5 and 26.8 and 32.9
[1]; Dd2-Polδ-PfATP4G358S, [(+)-SJ733] 78.1 nM, MEAN
  Final [Na+]cyt reached: 29.0
[1]; Dd2-Polδ-PfATP4G358S, [(+)-SJ733] 78.1 nM, single experiments
  Final [Na+]cyt reached: 26.6 and 27.0 and 33.4
[1]; Dd2-Polδ-PfATP4G358S, [(+)-SJ733] 156.3 nM, MEAN
  Final [Na+]cyt reached: 28.6
[1]; Dd2-Polδ-PfATP4G358S, [(+)-SJ733] 156.3 nM, single experiments
  Final [Na+]cyt reached: 25.8 and 27.2 and 32.8
[1]; Dd2-Polδ-PfATP4G358S, [(+)-SJ733] 312.5 nM, MEAN
  Final [Na+]cyt reached: 25.7
[1]; Dd2-Polδ-PfATP4G358S, [(+)-SJ733] 312.5 nM, single experiments
  Final [Na+]cyt reached: 25.5 and 26.1 and 32.5 and 18.8
[1]; Dd2-Polδ-PfATP4G358S, [(+)-SJ733] 625 nM, MEAN
  Final [Na+]cyt reached: 26.8
[1]; Dd2-Polδ-PfATP4G358S, [(+)-SJ733] 625 nM, single experiments
  Final [Na+]cyt reached: 26.0 and 26.8 and 34.1 and 20.2
[1]; Dd2-Polδ-PfATP4G358S, [(+)-SJ733] 2500 nM, MEAN
  Final [Na+]cyt reached: 28.2
[1]; Dd2-Polδ-PfATP4G358S, [(+)-SJ733] 2500 nM, single experiments
  Final [Na+]cyt reached: 27.1 and 27.5 and 36.9 and 21.3
[1]; Dd2-Polδ-PfATP4G358S, [(+)-SJ733] 5000 nM, MEAN
  Final [Na+]cyt reached: 30.8
[1]; Dd2-Polδ-PfATP4G358S, [(+)-SJ733] 5000 nM, single experiments
  Final [Na+]cyt reached: 29.9 and 28.6 and 41.3 and 23.6
[1]; Dd2-Polδ-PfATP4G358S, [(+)-SJ733] 10000 nM, MEAN
  Final [Na+]cyt reached: 38.0
[1]; Dd2-Polδ-PfATP4G358S, [(+)-SJ733] 10000 nM, single experiments
  Final [Na+]cyt reached: 34.4 and 33.8 and 55.9 and 28.0
[1]; Dd2-Polδ-PfATP4G358S, [(+)-SJ733] 20000 nM, MEAN
  Final [Na+]cyt reached: 58.1
[1]; Dd2-Polδ-PfATP4G358S, [(+)-SJ733] 40000 nM, MEAN
  Final [Na+]cyt reached: 76.7
[1]; Dd2-Polδ-PfATP4G358S, [(+)-SJ733] 40000 nM, single experiments
  Final [Na+]cyt reached: 88.7 and 92.6 and 48.8
[1]; Dd2-Polδ-PfATP4G358S, single experiments, source data of Table 1 (nM there)
  IC50: > 20000 nM
[1]; Plasmodium falciparum, DD2, 1.5 h, pH 7.1, Dd2-Polδ-PfATP4G358S, ~90 min exposure, 37 °C, pH 7.1
  IC50: > 10000 nM
